Reference: ChEMBL document CHEMBL1201861, “Genomics of Drug Sensitity in Cancer screening data, Wellcome Trust Sanger Institute”
pIC50: −log10 of the molar value.

Experiments:
Assay in all cases: cells
KNS-81-FD = assay type: functional, cell-based; settings: Homo sapiens;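 further: growth inhibition of KNS-81-FD cells, read out with a cell viability assay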
Description: SANGER: Inhibition of human KNS-81-FD cell growth in a cell viability assay.

SK-LMS-1 = assay type: functional, cell-based; settings: Homo sapiens;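 further: growth inhibition of human SK-LMS-1 cells, read out with a cell viability assay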
Description: SANGER: Inhibition of human SK-LMS-1 cell growth in a cell viability assay.

SCC-15 = assay type: functional, cell-based; settings: Homo sapiens;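 further: growth inhibition of SCC-15 cells, read out with a cell viability assay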
Description: SANGER: Inhibition of human SCC-15 cell growth in a cell viability assay.

OS-RC-2 = assay type: functional, cell-based; settings: Homo sapiens;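 further: growth inhibition of human OS-RC-2 cells, measured by a cell viability assay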
Description: SANGER: Inhibition of human OS-RC-2 cell growth in a cell viability assay.

TE-9 = assay type: functional, cell-based; settings: Homo sapiens;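 further: cell growth inhibition, measured with a cell viability readout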
Description: SANGER: Inhibition of human TE-9 cell growth in a cell viability assay.

DMS-79 = assay type: functional, cell-based; settings: Homo sapiens;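 further: growth inhibition measured with a cell viability assay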
Description: SANGER: Inhibition of human DMS-79 cell growth in a cell viability assay.

RKO = assay type: functional, cell-based; settings: Homo sapiens;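 further: growth inhibition of human RKO cells, read out with a cell viability assay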
Description: SANGER: Inhibition of human RKO cell growth in a cell viability assay.

C-33-A = assay type: functional, cell-based; settings: Homo sapiens;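 further: cell viability assay measuring growth inhibition of C-33-A cells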
Description: SANGER: Inhibition of human C-33-A cell growth in a cell viability assay.

GAK = assay type: functional, cell-based; settings: Homo sapiens;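 further: cell growth inhibition read out by a cell viability assay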
Description: SANGER: Inhibition of human GAK cell growth in a cell viability assay.

DB = assay type: functional, cell-based; settings: Homo sapiens
Description: SANGER: Inhibition of human DB cell growth in a cell viability assay.

EW-13 = assay type: functional, cell-based; settings: Homo sapiens;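 further: growth inhibition of EW-13 cells, read out with a cell viability assay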
Description: SANGER: Inhibition of human EW-13 cell growth in a cell viability assay.

UACC-257 = assay type: functional, cell-based; settings: Homo sapiens
Description: SANGER: Inhibition of human UACC-257 cell growth in a cell viability assay.

ML-2 = assay type: functional, cell-based; settings: Homo sapiens;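 further: growth inhibition of ML-2 cells, measured with a cell viability readout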
Description: SANGER: Inhibition of human ML-2 cell growth in a cell viability assay.

MFM-223 = assay type: functional, cell-based; settings: Homo sapiens
Description: SANGER: Inhibition of human MFM-223 cell growth in a cell viability assay.

LOUCY = assay type: functional, cell-based; settings: Homo sapiens;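 further: growth inhibition of human LOUCY cells, read out with a cell viability assay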
Description: SANGER: Inhibition of human LOUCY cell growth in a cell viability assay.

CAS-1 = assay type: functional, cell-based; settings: Homo sapiens;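 further: growth inhibition of CAS-1 cells, measured with a cell viability assay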
Description: SANGER: Inhibition of human CAS-1 cell growth in a cell viability assay.

NY = assay type: functional, cell-based; settings: Homo sapiens
Description: SANGER: Inhibition of human NY cell growth in a cell viability assay.

SW 954 = assay type: functional, cell-based; settings: Homo sapiens;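 further: growth inhibition of SW954 human cancer cells, read out as cell viability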
Description: SANGER: Inhibition of human SW954 cell growth in a cell viability assay.

IST-SL1 = assay type: functional, cell-based; settings: Homo sapiens;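 further: growth inhibition of human IST-SL1 cells, read out with a cell viability assay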
Description: SANGER: Inhibition of human IST-SL1 cell growth in a cell viability assay.

TE-6 = assay type: functional, cell-based; settings: Homo sapiens;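 further: growth inhibition of TE-6 cells, read out with a cell viability assay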
Description: SANGER: Inhibition of human TE-6 cell growth in a cell viability assay.

MZ2-MEL = assay type: functional, cell-based; settings: Homo sapiens;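 further: growth inhibition of MZ2-MEL cells read out with a cell viability assay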
Description: SANGER: Inhibition of human MZ2-MEL cell growth in a cell viability assay.

Ramos-2G6-4C10 = assay type: functional, cell-based; settings: Homo sapiens;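 further: growth inhibition of the cell line, measured by a cell viability read-out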
Description: SANGER: Inhibition of human Ramos-2G6-4C10 cell growth in a cell viability assay.

OCI-AML2 = assay type: functional, cell-based; settings: Homo sapiens;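 further: growth inhibition of OCI-AML2 cells, read out with a cell viability assay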
Description: SANGER: Inhibition of human OCI-AML2 cell growth in a cell viability assay.

MOLT-4 = assay type: functional, cell-based; settings: Homo sapiens;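 further: growth inhibition of MOLT-4 cells, determined with a cell viability readout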
Description: SANGER: Inhibition of human MOLT-4 cell growth in a cell viability assay.

OE19 = assay type: functional, cell-based; settings: Homo sapiens;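 further: growth inhibition of OE19 cells, measured through a cell viability read-out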
Description: SANGER: Inhibition of human OE19 cell growth in a cell viability assay.

P30-OHK = assay type: functional, cell-based; settings: Homo sapiens;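 further: growth inhibition of the P30-OHK cell line, read out with a cell viability assay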
Description: SANGER: Inhibition of human P30-OHK cell growth in a cell viability assay.

GB-1 = assay type: functional, cell-based; settings: Homo sapiens;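 further: growth of GB-1 cells judged by a viability assay, IC50 marks the concentration inhibiting growth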
Description: SANGER: Inhibition of human GB-1 cell growth in a cell viability assay.

COLO-792 = assay type: functional, cell-based; settings: Homo sapiens
Description: SANGER: Inhibition of human COLO-792 cell growth in a cell viability assay.

NEC8 = assay type: functional, cell-based; settings: Homo sapiens;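 further: growth inhibition of human NEC8 cells, read out by a cell viability assay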
Description: SANGER: Inhibition of human NEC8 cell growth in a cell viability assay.

NCI-H1304 = assay type: functional, cell-based; settings: Homo sapiens;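 further: growth inhibition of the cancer cell line, measured in a cell viability assay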
Description: SANGER: Inhibition of human NCI-H1304 cell growth in a cell viability assay.

Detroit 562 = assay type: functional, cell-based; settings: Homo sapiens;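 further: growth inhibition of human Detroit 562 cells, read out by a cell viability assay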
Description: SANGER: Inhibition of human Detroit562 cell growth in a cell viability assay.

NOMO-1 = assay type: functional, cell-based; settings: Homo sapiens;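 further: growth inhibition of human NOMO-1 cells measured by a cell viability assay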
Description: SANGER: Inhibition of human NOMO-1 cell growth in a cell viability assay.

RS4-11 = assay type: functional, cell-based; settings: Homo sapiens;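 further: growth inhibition of RS4-11 cells, read out by a cell viability assay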
Description: SANGER: Inhibition of human RS4-11 cell growth in a cell viability assay.

KARPAS-45 = assay type: functional, cell-based; settings: Homo sapiens;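 further: inhibition of cell line growth, read out through a viability assay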
Description: SANGER: Inhibition of human KARPAS-45 cell growth in a cell viability assay.

KU812 cell line = assay type: functional, cell-based; settings: Homo sapiens;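 further: growth inhibition of KU812 cells, read out with a cell viability assay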
Description: SANGER: Inhibition of human KU812 cell growth in a cell viability assay.

HCE-T = assay type: functional, cell-based; settings: Homo sapiens;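 further: cell viability assay read-out, reporting inhibition of HCE-T cell growth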
Description: SANGER: Inhibition of human HCE-T cell growth in a cell viability assay.

769-P = assay type: functional, cell-based; settings: Homo sapiens
Description: SANGER: Inhibition of human 769-P cell growth in a cell viability assay.

REH = assay type: functional, cell-based; settings: Homo sapiens;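 further: growth inhibition of REH cells determined with a cell viability read-out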
Description: SANGER: Inhibition of human REH cell growth in a cell viability assay.

LS-123 = assay type: functional, cell-based; settings: Homo sapiens
Description: SANGER: Inhibition of human LS-123 cell growth in a cell viability assay.

NCI-H1395 = assay type: functional, cell-based; settings: Homo sapiens;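 further: cell viability assay read-out quantifying reduced proliferation of human NCI-H1395 cells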
Description: SANGER: Inhibition of human NCI-H1395 cell growth in a cell viability assay.

ETK-1 = assay type: functional, cell-based; settings: Homo sapiens;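 further: growth inhibition of human ETK-1 cells, read out with a cell viability assay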
Description: SANGER: Inhibition of human ETK-1 cell growth in a cell viability assay.

LB2518-MEL = assay type: functional, cell-based; settings: Homo sapiens;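 further: growth inhibition of human LB2518-MEL cells, measured with a cell viability assay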
Description: SANGER: Inhibition of human LB2518-MEL cell growth in a cell viability assay.

SNU-5 = assay type: functional, cell-based; settings: Homo sapiens;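 further: cell viability readout used to measure growth inhibition in human NCI-SNU-5 cells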
Description: SANGER: Inhibition of human NCI-SNU-5 cell growth in a cell viability assay.

EOL1 = assay type: functional, cell-based; settings: Homo sapiens;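 further: growth inhibition of EoL-1 cells, read out by a cell viability assay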
Description: SANGER: Inhibition of human EoL-1-cell cell growth in a cell viability assay.

SNB-75 = assay type: functional, cell-based; settings: Homo sapiens;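 further: cell viability assay measuring growth inhibition of human SNB-75 cells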
Description: SANGER: Inhibition of human SNB75 cell growth in a cell viability assay.

SF-539 = assay type: functional, cell-based; settings: Homo sapiens;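 further: Read-out is a cell viability assay, with IC50 reflecting inhibition of cell growth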
Description: SANGER: Inhibition of human SF539 cell growth in a cell viability assay.

SH-4 = assay type: functional, cell-based; settings: Homo sapiens;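 further: growth inhibition of SH-4 cells, read out with a cell viability assay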
Description: SANGER: Inhibition of human SH-4 cell growth in a cell viability assay.

NCI-H1155 = assay type: functional, cell-based; settings: Homo sapiens;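 further: cell growth inhibition measured by a viability assay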
Description: SANGER: Inhibition of human NCI-H1155 cell growth in a cell viability assay.

HD-MY-Z = assay type: functional, cell-based; settings: Homo sapiens;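 further: growth inhibition of HD-MY-Z cells, read out with a cell viability assay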
Description: SANGER: Inhibition of human HD-MY-Z cell growth in a cell viability assay.

HH = assay type: functional, cell-based; settings: Homo sapiens
Description: SANGER: Inhibition of human HH cell growth in a cell viability assay.

SK-N-FI = assay type: functional, cell-based; settings: Homo sapiens;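 further: cell viability assay measuring growth inhibition of human SK-N-FI cells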
Description: SANGER: Inhibition of human SK-N-FI cell growth in a cell viability assay.

ES5 = assay type: functional, cell-based; settings: Homo sapiens;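 further: growth inhibition of human ES5 cells, read out by a cell viability assay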
Description: SANGER: Inhibition of human ES5 cell growth in a cell viability assay.

HT-144 = assay type: functional, cell-based; settings: Homo sapiens
Description: SANGER: Inhibition of human HT-144 cell growth in a cell viability assay.

CAL-12T = assay type: functional, cell-based, Homo sapiens; settings: Homo sapiens, CAL-12T;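 further: growth inhibition of human CAL-12T cells, read out with a cell viability assay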
Description: SANGER: Inhibition of human CAL-12T cell growth in a cell viability assay.

NCI-H2228 = assay type: functional, cell-based; settings: Homo sapiens;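 further: growth inhibition of human NCI-H2228 cells, read out by a cell viability assay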
Description: SANGER: Inhibition of human NCI-H2228 cell growth in a cell viability assay.

KMOE-2 = assay type: functional, cell-based; settings: Homo sapiens;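 further: growth inhibition of human KMOE-2 cells, read out with a cell viability assay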
Description: SANGER: Inhibition of human KMOE-2 cell growth in a cell viability assay.

LB2241-RCC = assay type: functional, cell-based; settings: Homo sapiens;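 further: cell viability assay measuring how strongly the cultured human renal carcinoma line is prevented from growing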
Description: SANGER: Inhibition of human LB2241-RCC cell growth in a cell viability assay.

HCE-4 = assay type: functional, cell-based; settings: Homo sapiens
Description: SANGER: Inhibition of human HCE-4 cell growth in a cell viability assay.

QIMR-WIL = assay type: functional, cell-based; settings: Homo sapiens
Description: SANGER: Inhibition of human QIMR-WIL cell growth in a cell viability assay.

CA46 = assay type: functional, cell-based; settings: Homo sapiens
Description: SANGER: Inhibition of human CA46 cell growth in a cell viability assay.

U-87 MG = assay type: functional, cell-based, U-87MG ATCC; settings: Homo sapiens
Description: SANGER: Inhibition of human U-87-MG cell growth in a cell viability assay.

CTV-1 = assay type: functional, cell-based; settings: Homo sapiens
Description: SANGER: Inhibition of human CTV-1 cell growth in a cell viability assay.

GR-ST = assay type: functional, cell-based; settings: Homo sapiens
Description: SANGER: Inhibition of human GR-ST cell growth in a cell viability assay.

KM12 = assay type: functional, cell-based; settings: Homo sapiens
Description: SANGER: Inhibition of human KM12 cell growth in a cell viability assay.

KG-1 = assay type: functional, cell-based; settings: Homo sapiens
Description: SANGER: Inhibition of human KG-1 cell growth in a cell viability assay.

DOHH-2 = assay type: functional, cell-based; settings: Homo sapiens
Description: SANGER: Inhibition of human DOHH-2 cell growth in a cell viability assay.

CC(O)(CS(=O)(=O)c1ccc(F)cc1)C(=O)Nc1ccc(C#N)c(C(F)(F)F)c1 (configuration not stated) [BICALUTAMIDE]
pIC50 (KNS-81-FD): < 5.99 | pIC50 (SK-LMS-1): < 5.99 | pIC50 (SCC-15): < 5.99 | pIC50 (OS-RC-2): < 5.99 | pIC50 (TE-9): < 5.99 | pIC50 (DMS-79): < 5.99 | pIC50 (RKO): < 5.99 | pIC50 (C-33-A): < 5.99 | pIC50 (GAK): < 5.99 | pIC50 (DB): < 5.99 | pIC50 (EW-13): < 5.99 | pIC50 (UACC-257): < 5.99 | pIC50 (ML-2): < 5.99 | pIC50 (MFM-223): < 5.99 | pIC50 (LOUCY): < 5.99 | pIC50 (CAS-1): < 5.99 | pIC50 (NY): < 5.99 | pIC50 (SW 954): < 5.99 | pIC50 (IST-SL1): < 5.99 | pIC50 (TE-6): < 5.99 | pIC50 (MZ2-MEL): < 5.99 | pIC50 (Ramos-2G6-4C10): < 5.99 | pIC50 (OCI-AML2): < 5.99 | pIC50 (MOLT-4): < 5.99 | pIC50 (OE19): < 5.99 | pIC50 (P30-OHK): < 5.99 | pIC50 (GB-1): < 5.99 | pIC50 (COLO-792): < 5.99 | pIC50 (NEC8): < 5.99 | pIC50 (NCI-H1304): < 5.99 | pIC50 (Detroit 562): < 5.99 | pIC50 (NOMO-1): < 5.99 | pIC50 (RS4-11): < 5.99 | pIC50 (KARPAS-45): < 5.99 | pIC50 (KU812 cell line): < 5.99 | pIC50 (HCE-T): < 5.99 | pIC50 (769-P): < 5.99 | pIC50 (REH): < 5.99 | pIC50 (LS-123): < 5.99 | pIC50 (NCI-H1395): < 5.99 | pIC50 (ETK-1): < 5.99 | pIC50 (LB2518-MEL): < 5.99 | pIC50 (SNU-5): < 5.99 | pIC50 (EOL1): < 5.99 | pIC50 (SNB-75): < 5.99 | pIC50 (SF-539): < 5.99 | pIC50 (SH-4): < 5.99 | pIC50 (NCI-H1155): < 5.99 | pIC50 (HD-MY-Z): < 5.99 | pIC50 (HH): < 5.99 | pIC50 (SK-N-FI): < 5.99 | pIC50 (ES5): < 5.99 | pIC50 (HT-144): < 5.99 | pIC50 (CAL-12T): < 5.99 | pIC50 (NCI-H2228): < 5.99 | pIC50 (KMOE-2): < 5.99 | pIC50 (LB2241-RCC): < 5.99 | pIC50 (HCE-4): < 5.99 | pIC50 (QIMR-WIL): < 5.99 | pIC50 (CA46): < 5.99 | pIC50 (U-87 MG): < 5.99 | pIC50 (CTV-1): < 5.99 | pIC50 (GR-ST): < 5.99 | pIC50 (KM12): < 5.99 | pIC50 (KG-1): < 5.99 | pIC50 (DOHH-2): < 5.99

CCNC(=O)c1noc(-c2cc(C(C)C)c(O)cc2O)c1-c1ccc(CN2CCOCC2)cc1 [LUMINESPIB]
pIC50 (KNS-81-FD): 7.16 | pIC50 (SK-LMS-1): 8.34 | pIC50 (SCC-15): 7.55 | pIC50 (OS-RC-2): 7.47 | pIC50 (TE-9): 7.37 | pIC50 (DMS-79): < 6.59 | pIC50 (RKO): 8.08 | pIC50 (C-33-A): 7.82 | pIC50 (GAK): 7.24 | pIC50 (DB): 6.64 | pIC50 (EW-13): 8.29 | pIC50 (UACC-257): 7.12 | pIC50 (ML-2): 7.44 | pIC50 (MFM-223): < 6.59 | pIC50 (LOUCY): 8.30 | pIC50 (CAS-1): 6.92 | pIC50 (NY): 7.76 | pIC50 (SW 954): 7.97 | pIC50 (IST-SL1): < 6.59 | pIC50 (TE-6): 6.61 | pIC50 (MZ2-MEL): 7.50 | pIC50 (Ramos-2G6-4C10): 7.12 | pIC50 (OCI-AML2): 7.89 | pIC50 (MOLT-4): 7.32 | pIC50 (OE19): 7.71 | pIC50 (P30-OHK): < 6.59 | pIC50 (GB-1): 7.66 | pIC50 (COLO-792): 7.05 | pIC50 (NEC8): < 6.59 | pIC50 (NCI-H1304): 7.08 | pIC50 (Detroit 562): 7.41 | pIC50 (NOMO-1): 7.14 | pIC50 (RS4-11): 7.47 | pIC50 (KARPAS-45): 7.03 | pIC50 (KU812 cell line): 7.43 | pIC50 (HCE-T): 7.54 | pIC50 (769-P): 7.97 | pIC50 (REH): 7.69 | pIC50 (LS-123): 7.61 | pIC50 (NCI-H1395): < 6.59 | pIC50 (ETK-1): 7.55 | pIC50 (LB2518-MEL): < 6.59 | pIC50 (SNU-5): < 6.59 | pIC50 (EOL1): < 6.59 | pIC50 (SNB-75): 7.61 | pIC50 (SF-539): < 6.59 | pIC50 (SH-4): 7.38 | pIC50 (NCI-H1155): < 6.59 | pIC50 (HD-MY-Z): 6.84 | pIC50 (HH): 6.85 | pIC50 (SK-N-FI): < 6.59 | pIC50 (ES5): < 6.59 | pIC50 (HT-144): 8.81 | pIC50 (CAL-12T): 8.04 | pIC50 (NCI-H2228): 7.97 | pIC50 (KMOE-2): 7.24 | pIC50 (LB2241-RCC): 7.44 | pIC50 (HCE-4): 7.67 | pIC50 (QIMR-WIL): 7.90 | pIC50 (CA46): 7.27 | pIC50 (U-87 MG): 7.48 | pIC50 (CTV-1): 7.39 | pIC50 (GR-ST): 6.99 | pIC50 (KM12): 7.85 | pIC50 (KG-1): < 6.59 | pIC50 (DOHH-2): 6.73
